{"source": "PubChem BioAssay AID623861", "about": "(Sanford-Burnham Center for Chemical Genomics, 2012)", "note": "The source made the active and inactive calls.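 Rule for the calls: active = compounds whose EC50 for boosting single-cell stem cell survival is at or below a set limit; inactive = the rest.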", "data": [{"tested_on": "human iPSC single-cell survival, ATP luminescence", "experiment": "human iPSC survival promotion after dissociation – cell-based, luminescence, dose response (AID 623861)", "values": [{"smiles": "CCOc1ccc(S(=O)(=O)Nc2cccc(C(=O)N3CCN(c4ccc(OC)cc4)CC3)c2)cc1", "EC50": "> 80 µM (inactive)"}, {"smiles": "COc1ccc(OC)c(NC(=O)C(CC(C)C)NC(=O)C2CCCCC2)c1", "note": "(centres undefined)", "EC50": "> 80 µM (inactive)"}, {"smiles": "CC1CCN(C(=O)c2[nH]cnc2C(=O)NCC(=O)OC(C)(C)C)CC1", "EC50": "> 80 µM (inactive)"}, {"smiles": "N#C/C(=C/c1cccc([N+](=O)[O-])c1)c1nnc2n1CCCCC2", "EC50": "7.37 µM"}, {"smiles": "COC(=O)C1=C(C)N(C)C(C)=C(C(=O)OC)C1c1cccc(Br)c1", "EC50": "> 80 µM (inactive)"}, {"smiles": "CC(OC(=O)c1cccc(S(=O)(=O)N2CCN(C)CC2)c1)C(=O)Nc1ccc(C(N)=O)cc1", "note": "(centres undefined)", "EC50": "30.6 µM (inactive)"}, {"smiles": "CN1C2CCC1/C(=C/c1ccccn1)C(=O)/C2=C\\c1ccccn1", "EC50": "6.32 µM"}, {"smiles": "CCN1C/C(=C\\c2cccc([N+](=O)[O-])c2)C(=O)/C(=C/c2cccc([N+](=O)[O-])c2)C1", "EC50": "20 µM"}, {"smiles": "NC(=O)c1ccc(Nc2nc(C(N)c3ccccc3Cl)cs2)cc1", "note": "(centres undefined)", "EC50": "39.7 µM (inactive)"}]}]}
